One may read the IC50 as the concentration that inhibits the measured activity by half. In general, EC50 refers to the concentration giving half of the maximal effect. Usually Ki stands for the dissociation constant of the complex between target and ligand, obtained from inhibition or displacement. The solubility is the concentration that dissolves in the medium under given conditions.

≈ marks a conversion by molar mass, not a printed value. Where only a bound is given, the exact number is not on record here.

A short description of data set [1]: Microsomal stability, mouse.
In data set [2] the target is T1, human D2R/β-arrestin (Homo sapiens (Human), UniProt P14416). The data set is described as follows: cell-based. The following applies: β-arrestin Antagonist, CHO-K1 cell line expressing human D2R/β-arrestin; quinpirole used as agonist.
Data set [3] can be described thus: Microsomal stability, rat. It is filed as in vitro ADME.
A short description of data set [4]: Plasma protein binding, rat. In kind it is in vitro ADME. The following applies: plasma, read-out: Plasma Protein Binding % bound.
Data set [5] addresses T1, human D2R/β-arrestin. The data set is described as follows: Gi/cAMP agonist assay (Lance Ultra cAMP, Forskolin). In kind it is cell-based. The following applies: CHO-K1 cell line expressing human D2R/β-arrestin. The procedure, abridged:
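Read-out was Lance Ultra competitive TR-FRET (Eu-cAMP tracer plus ULight-anti-cAMP) following forskolin-induced cAMP production. Before forskolin stimulation, compounds were pin-transferred onto the seeded cells for 10 min at 37 °C.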

Data set [6] addresses T1, human D2R/β-arrestin. The data set is described as follows: β-Arrestin agonist assay (PathHunter). In kind it is cell-based. The note with it: CHO-K1 cell line expressing human D2R/β-arrestin. The procedure, abridged: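 Readout follows addition of Buffer:Emerald II:Galactor-Star reagent (19:5:1) to agonist-treated plates, measured as luminescence or fluorescence.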
Data set [7] can be described thus: Plasma protein binding, mouse. It is filed as in vitro ADME. The following applies: plasma, read-out: Plasma Protein Binding % bound.
The nature of data set [8]: Plasma protein binding, human. In kind it is in vitro ADME. The following applies: plasma, read-out: Plasma Protein Binding % bound.
Data set [9] can be described thus: Plasma stability, mouse.
Data set [10] is described as follows: Plasma stability, rat. It is filed as in vitro ADME.
The nature of data set [11]: Microsomal stability, human. It is filed as in vitro ADME.
The target in data set [12] is T1, human D2R/β-arrestin. The data set is described as follows: cell-based. The following applies: cAMP Antagonist, CHO-K1 cell line expressing human D2R/β-arrestin; quinpirole used as agonist.
Description: The detection reagents are then added, and the read-out is detected.
Cells were prepared for assays by growing cultures for up to 2 weeks (from about 6-20 passages). A vial of frozen cells was thawed in a water bath held at 37° C. The cells were then transferred into a 50 ml tube with 10 ml growth media. The vial was rinsed with growth media and the contents transferred to the 50 ml tube. The 50 ml tube was centrifuged at 1200 rpm for 5 minutes at room temperature. […] When the cells reached about 90% confluence (approximately 3 days between passages), the cells were passaged and used for either the agonist or antagonist assays as described below.
The cells were prepared for Gi/cAMP assays as described above. The assays were performed using a PE Lance Ultra cAMP kit (TRF0263). The cells were grown on 225 mm dishes, then washed once with 1×PBS (Cellgro) before digestion with 2.5 ml 1× Detachment reagent (DRX 92-0009) for about 2 minutes. PBS (20 ml) was then added to the plate, and the cells were transferred to a 50 ml centrifuge tube, and centrifuged at room temperature using BD Dynac III, at 1200 rpm for 5 minutes. […] The plates were then incubated at room temperature for about 30 minutes before addition of Eu-cAMP tracer solution (100, PerkinElmer) and then ULight-anti-cAMP solution (100) to each well.
Data set [13] in a line: Plasma stability, human. In kind it is in vitro ADME.
Data set [14] has as its target D2 (Homo sapiens (Human), UniProt P14416). Put plainly: D2 radioligand binding assay.
Data set [15] in a line: Solubility in PBS. It is filed as physicochemical. The following applies: aqueous buffer.
The subject of data set [16] is Caco2. Put plainly: Caco2 permeability. In kind it is in vitro ADME. The arrangement: unit not given beside the values. The note with it: for Caco2 A-B: A-B direction; for Caco2 B-A: B-A direction.
Data set [17] addresses T1, human D2R/β-arrestin. The following applies: CHO-K1 cell line expressing human D2R/β-arrestin, β-arrestin and Gi/cAMP pathways, FIG. 1.

Sequence of D2 (P14416 whole entry): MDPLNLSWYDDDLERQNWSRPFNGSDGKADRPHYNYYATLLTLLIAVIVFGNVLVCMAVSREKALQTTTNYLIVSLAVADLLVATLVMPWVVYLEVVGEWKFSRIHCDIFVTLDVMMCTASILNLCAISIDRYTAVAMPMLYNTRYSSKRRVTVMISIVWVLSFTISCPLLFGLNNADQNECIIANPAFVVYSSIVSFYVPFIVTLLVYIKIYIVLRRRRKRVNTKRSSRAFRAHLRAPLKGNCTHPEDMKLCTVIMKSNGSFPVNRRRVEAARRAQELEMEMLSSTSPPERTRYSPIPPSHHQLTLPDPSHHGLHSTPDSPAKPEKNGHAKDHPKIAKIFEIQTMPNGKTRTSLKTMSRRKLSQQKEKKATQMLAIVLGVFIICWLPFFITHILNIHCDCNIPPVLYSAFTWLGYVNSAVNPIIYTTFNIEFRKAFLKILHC
T1 sequence (P14416 whole entry): as above

Consider `COc1cccc(C(NC(=O)C2CCN(CCOc3ccccc3)CC2)c2ccccc2)c1` (centres unmarked) [Compound 146, N-((3-methoxyphenyl)(phenyl)methyl)-1-(2-phenoxyethyl)piperidine-4-carboxamide], for which the figures for the “Microsomal Stability: % remaining after 60 minutes” value (from here on “Microsomal Stability: % remaining”) in [1], in data set [3] and in [11] were 36%, 27% and 56%, respectively. Moreover, the IC50 fell in the range of 1000 to 10000 nM in data set [2] and 1 to 10 µM in data set [12]. Besides, the fraction unbound in data set [4] came out at 0.021; in data set [7], 0.04; in data set [8] it was 0.022. Also, the EC50 was over 30000 nM in data set [5] and over 30 µM in [6]. Also, the “Plasma Stability: % remaining after 5 hours” value (“Plasma Stability: % remaining” below) in data set [9] came to 96%; in data set [10], 88%; in data set [13] it was 98%.

`Clc1ccc(C(NCC2CCN(CCOc3ccccc3)CC2)c2ccccn2)cc1` (centres unmarked) [Compound 114, 1-(4-chlorophenyl)-N-((1-(2-phenoxyethyl)piperidin-4-yl)methyl)-1-(pyridin-2-yl)methanamine]: the “Microsomal Stability: % remaining” value is given as 6% in data set [1], 20% in data set [3] and 63% in [11]. Also, the Ki in data set [14] was in the range of 100 to 1000 nM. Moreover, the IC50 was 100 to 1000 nM in [2] and under 0.1 µM in [12]. Also, the figures for the fraction unbound in [4], in [7] and in data set [8] were 0.005, 0.023 and 0.014, respectively. The figures for the EC50 in data set [5] and in data set [6] were over 30000 nM and over 30 µM, respectively. Also, the “Plasma Stability: % remaining” value is reported as “h100, m100, r100%” in data set [9]; “h100, m100, r100%” in data set [10]; “h100, m100, r100%” in [13].

Take `O=C(NC(c1ccc(Cl)cc1)c1ccccn1)C1CCN(CCCc2ccccc2)CC1` (centres unmarked) [Compound 18, N-((4-chlorophenyl)(pyridin-2-yl)methyl)-1-(3-phenylpropyl)piperidine-4-carboxamide]: the “Microsomal Stability: % remaining” value in data set [1] stood at 43%; in data set [3], 55%; in data set [11], 78%. Moreover, the IC50 in [2] is 1000 to 10000 nM; in data set [12] it was over 30 µM. Besides, the fraction unbound was 0.027 in data set [4], 0.056 in data set [7] and 0.046 in data set [8]. The EC50 in data set [5] is 100 to 1000 nM; in data set [6], over 30 µM. Moreover, the entries for the “Plasma Stability: % remaining” value in data set [9], in [10] and in [13] were 90.5%, 93.2% and 94.9%, respectively. In data set [15], this molecule came in with a solubility of 352 µM (≈ 158 µg/mL).

Consider `O=C(NC(c1ccncc1)c1ccc(Cl)cc1)C1CCN(CCOc2ccccc2)CC1` (centres unmarked) [Compound 112, N-((4-chlorophenyl)(pyridin-4-yl)methyl)-1-(2-phenoxyethyl)piperidine-4-carboxamide], for which the results for the “Microsomal Stability: % remaining” value in data set [1], in data set [3] and in data set [11] were 29%, 53% and 52%, respectively. Besides, the IC50 is 1000 to 10000 nM in data set [2] and over 30 µM in data set [12]. For the same molecule, the fraction unbound in data set [4] turned out to be 0.02; in [7], 0.05; in [8], 0.064. The figures for the concentration giving a half-maximal response (EC50) in data set [5] and in [6] were under 100 nM and over 30 µM, respectively. In addition, the figures for the “Plasma Stability: % remaining” value in [9], in data set [10] and in data set [13] were 95%, 95% and 100%, respectively. Also, the solubility in [15] came out at 19 µM (≈ 8.55 µg/mL).

For `O=C(NC(c1ccc(Cl)cc1)c1ccccn1)C1CCN(CCOc2ccccc2Cl)CC1` (centres unmarked) [Compound 66, 1-(2-(2-chlorophenoxy)ethyl)-N-((4-chlorophenyl)(pyridin-2-yl)methyl)piperidine-4-carboxamide], the “Microsomal Stability: % remaining” value in [1] is reported as 7%; in data set [3], 35%; in data set [11], 46%. Besides, in data set [16], the “Caco2 A-B” value is listed as 15.1. Also, the “Caco2 B-A” value in [16] stood at 2.4. Moreover, in [14], the inhibitory constant (Ki) is 100 to 1000 nM. Moreover, the values for the IC50 in [2] and in data set [12] were under 100 nM and under 0.1 µM, respectively. The fraction unbound came out at 0.006 in [4], 0.008 in data set [7] and 0.007 in data set [8]. The results for the 50% effective concentration (EC50) in data set [5] and in data set [6] were 10000 to 30000 nM and over 30 µM, respectively. In addition, the “Plasma Stability: % remaining” value amounted to 100% in data set [9], 88.1% in data set [10] and 99.7% in [13]. This molecule displayed a solubility in data set [15] of 10.5 µM (≈ 5.09 µg/mL).

With `O=C(NC(c1ccccn1)C1CCCCC1)C1CCN(CCOc2ccccc2)CC1` (centres unmarked) [Compound 37, N-(cyclohexyl(pyridin-2-yl)methyl)-1-(2-phenoxyethyl)piperidine-4-carboxamide], the “Microsomal Stability: % remaining” value is on record as 31% in data set [1], 28% in data set [3] and 71% in data set [11]. Moreover, the IC50 in data set [2] is 100 to 1000 nM; in data set [12], 1 to 10 µM. Further, the fraction unbound in data set [4] is 0.024; in [7], 0.051; in [8] it was 0.047. Also, the values for the concentration giving a half-maximal response (EC50) in data set [5] and in data set [6] were over 30000 nM and over 30 µM, respectively. The “Plasma Stability: % remaining” value is recorded as 98% in data set [9], 100% in [10] and 100% in [13]. This molecule also gave a solubility in data set [15] of 197 µM (≈ 83.1 µg/mL).

As for `O=C(NC(c1ccc(Cl)cc1)c1cccnc1)C1CCN(CCOc2ccccc2)CC1` (centres unmarked) [Compound 111, N-((4-chlorophenyl)(pyridin-3-yl)methyl)-1-(2-phenoxyethyl)piperidine-4-carboxamide], the “Microsomal Stability: % remaining” value in data set [1] stood at 39%; in data set [3] it was 51%; in data set [11], 60%. Also, the values for the IC50 in data set [2] and in data set [12] were 100 to 1000 nM and over 30 µM, respectively. Moreover, the fraction unbound in [4] was 0.022; in [7], 0.027; in data set [8], 0.053. Moreover, the 50% effective concentration (EC50) in data set [5] was 100 to 1000 nM; in [6], over 30 µM. Besides, the “Plasma Stability: % remaining” value in [9] is 100%; in [10], 98%; in [13], 100%.

As for `O=C(NC(c1ccc(Cl)cc1)c1ccccn1)C1CCN(CCOc2ccccc2)CC1` (centres unmarked) [Compound 63, N-((4-chlorophenyl)(pyridin-2-yl)methyl)-1-(2-phenoxyethyl)piperidine-4-carboxamide], the “functional profile at D2R (antagonist mode)” value in [17] is recorded as “representative β-arrestin biased D2R antagonists”. Further, the “Microsomal Stability: % remaining” value in data set [1] amounted to 37%; in data set [3], 55%; in [11] it was 58%. Also, in [16], the “Caco2 A-B” value worked out at 25.1. In addition, in [16], the “Caco2 B-A” value was 19.9. The molecule also showed an inhibitory constant (Ki) in data set [14] of 100 to 1000 nM. Further, the IC50 in data set [2] is 100 to 1000 nM; in data set [12], over 30 µM. Further, the 50% effective concentration (EC50) was 100 to 1000 nM in [5] and over 30 µM in data set [6]. The fraction unbound in data set [7] worked out at 0.026; in data set [8], 0.037. Moreover, the “Plasma Stability: % remaining” value in data set [9] is reported as 93.4%; in data set [13], 94.5%. In data set [15], the solubility is 476 µM (≈ 214 µg/mL).

As for `O=C(NC(c1ccc(Cl)cc1)c1ccccn1)C1CCN(CCOc2ccc(F)cc2F)CC1` (centres unmarked) [Compound 115, N-((4-chlorophenyl)(pyridin-2-yl)methyl)-1-(2-(2,4-difluorophenoxy)ethyl)piperidine-4-carboxamide], the “Microsomal Stability: % remaining” value in data set [1] was 26%; in data set [3], 77%; in data set [11], 63%. In addition, the “Caco2 A-B” value in [16] is 30.4. In data set [16], the “Caco2 B-A” value is 11.5. Further, the half-inhibitory concentration (IC50) in data set [2] is 1000 to 10000 nM; in data set [12] it was over 30 µM. The fraction unbound in [4] is 0.005; in data set [7], 0.015; in [8], 0.008. Also, the results for the EC50 in [5] and in data set [6] were 100 to 1000 nM and over 30 µM, respectively. Moreover, the “Plasma Stability: % remaining” value stood at 86.2% in data set [9], 98.0% in [10] and 91.2% in [13]. Also, the solubility in [15] stood at 220 µM (≈ 107 µg/mL).
